Measurements reported in patent publication US9650395B2, “Antibacterial compounds and methods for use” (PTC Therapeutics, Inc., priority 2011, dated 2017).
Converted amounts (≈) assume the structure as drawn. Where two headings read alike, the source gives them in different places.

Assays:
[1] = test system: super sensitive Gram-negative Escherichia coli (E. coli) BAS849; test: Antibacterial activity, microbroth dilution MIC, E. coli BAS849; type: cell-based; conditions: Escherichia coli, read-out: MIC, BAS849
[2] = test system: control Gram-negative E. coli 25922 strain; test: Antibacterial activity, microbroth dilution MIC, E. coli 25922; type: cell-based, Escherichia coli; conditions: Escherichia coli; E. coli 25922, microbroth dilution; read-out: MIC, 25922
[3] = test system: Gram-positive Staphylococcus aureus (S. aureus) 29213; test: Antibacterial activity, microbroth dilution MIC, S. aureus 29213; type: cell-based; conditions: Staphylococcus aureus; S. aureus 29213, microbroth dilution; read-out: MIC, 29213
[4] = test system: quinolone resistant E. coli LZ3111; test: Antibacterial activity, MIC, quinolone resistant E. coli LZ3111; type: cell-based, Escherichia coli; conditions: Escherichia coli, read-out: MIC, LZ3111
Description: (§1) The antibacterial activity from a microbroth dilution method may be presented as the minimum inhibitory concentration (MIC in […]). The MIC value is the lowest concentration of a drug which prevents macroscopically visible bacterial growth under test conditions.
Mutations in these regions are known to confer a high level resistance to the quinolone class of antibiotics.

[5] = test system: E. coli ELZ4000 (MDR clinical isolate); test: Antibacterial activity, MIC, MDR E. coli ELZ4000; type: cell-based, Escherichia coli; conditions: Escherichia coli; E. coli ELZ4000, MDR clinical isolate; read-out: MIC ELZ4000
[6] = test system: E. coli ELZ4251 (MDR clinical isolate); test: Antibacterial activity, MIC, MDR E. coli ELZ4251; type: cell-based, Escherichia coli; conditions: Escherichia coli, E. coli ELZ4251, MDR clinical isolate; read-out: MIC ELZ4251
[7] = test system: Acinetobacter baumannii (A. baumannii) BAA747; test: Antibacterial activity, MIC, A. baumannii BAA747; type: cell-based; conditions: Acinetobacter baumannii; A. baumannii BAA747; read-out: MIC BAA747
[8] = test system: Klebsiella pneumoniae (K. pneumoniae) 35657; test: Antibacterial activity, MIC, K. pneumoniae 35657; type: cell-based; conditions: Klebsiella pneumoniae
[9] = test system: resistant A. baumannii MXX2240 (MDR clinical isolate); test: Antibacterial activity, MIC, resistant A. baumannii MXX2240; type: cell-based, Acinetobacter baumannii; conditions: Acinetobacter baumannii, resistant A. baumannii MMX2240, MDR clinical isolate; read-out: MIC MMX2240
[10] = test system: resistant K. pneumoniae MXX1232 (MDR clinical isolate); test: Antibacterial activity, MIC, resistant K. pneumoniae MXX1232; type: cell-based, Klebsiella pneumoniae; conditions: Klebsiella pneumoniae; resistant K. pneumoniae MMX1232, MDR clinical isolate; read-out: MIC MMX1232
[11] = test system: Pseudomonas aeruginosa (P. aeruginosa) 27853; test: Antibacterial activity, MIC, P. aeruginosa 27853; type: cell-based; conditions: Pseudomonas aeruginosa, P. aeruginosa 27853; read-out: MIC 27853
Description: as §1
Antibacterial activity of test compounds against the Gram-negative bacterium Pseudomonas aeruginosa (P. aeruginosa) 27853 is shown in Table 5.

[12] = test system: Haemophilus influenzae (H. influenzae) 49247; test: Antibacterial activity, MIC, H. influenzae 49247; type: cell-based; conditions: Haemophilus influenzae; H. influenzae 49247; read-out: MIC 49247
Procedure, shortened: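 Antibacterial activity against the Gram-negative organism Haemophilus influenzae strain 49247 was measured by microbroth dilution. The minimum inhibitory concentration (MIC) was taken as the lowest drug concentration that stopped bacterial growth from being visible to the naked eye under the test conditions.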

[13] = test system: Moraxella catarrhalis (M. catarrhalis) 25238; test: Antibacterial activity, MIC, M. catarrhalis 25238; type: cell-based; conditions: Moraxella catarrhalis, M. catarrhalis 25238; read-out: MIC 25238
[14] = test system: Neisseria meningitidis (N. meningitidis) 13090; test: Antibacterial activity, MIC, N. meningitidis 13090; type: cell-based; conditions: Neisseria meningitidis; N. meningitidis 13090; read-out: MIC 13090
[15] = E. coli BAS849, microbroth dilution

SMILES: Cc1c(-c2ccc(N(C)C)cc2)[nH]c(=O)c(C(=O)O)c1O [Cpd 5, 6-[4-(dimethylamino)phenyl]-4-hydroxy-5-methyl-2-oxo-1,2-dihydropyridine-3-carboxylic acid]
- MIC [1, 15]: < 1 µg/mL
- MIC [2]: 12.5 to 150 µg/mL (≈ 43.4 to 520 µM)
- MIC [3]: 12.5 to 150 µg/mL (≈ 43.4 to 520 µM)
- MIC [4]: 1 to 3.5 µg/mL (≈ 3.47 to 12.1 µM)
- MIC [5]: 3.5 to 12.5 µg/mL (≈ 12.1 to 43.4 µM)
- MIC [6]: 1 to 3.5 µg/mL (≈ 3.47 to 12.1 µM)
- MIC [7]: 3.5 to 12.5 µg/mL (≈ 12.1 to 43.4 µM)
- MIC [8]: 12.5 to 150 µg/mL (≈ 43.4 to 520 µM)
- MIC [9]: < 1 µg/mL
- MIC [10]: 12.5 to 150 µg/mL (≈ 43.4 to 520 µM)
- MIC [11]: 12.5 to 150 µg/mL (≈ 43.4 to 520 µM)
- MIC [12]: 1 to 3.5 µg/mL (≈ 3.47 to 12.1 µM)
- MIC [13]: 1 to 3.5 µg/mL (≈ 3.47 to 12.1 µM)
- MIC [14]: < 1 µg/mL

SMILES: CCc1c(-c2ccc(N3C[C@H]4CCC[C@@H](N)[C@H]4C3)cc2)[nH]c(=O)c(C(=O)O)c1O.O=C(O)C(F)(F)F [Cpd 262, 6-{4-[(3aR,4R,7aS)-4-aminooctahydro-2H-isoindol-2-yl]phenyl}-5-ethyl-4-hydroxy-2-oxo-1,2-dihydropyridine-3-carboxylic acid trifluoroacetate]
- MIC [1]: < 1 µg/mL
- MIC [2]: 1 to 3.5 µg/mL
- MIC [3]: 3.5 to 12.5 µg/mL
- MIC [4]: < 1 µg/mL
- MIC [5]: 1 to 3.5 µg/mL
- MIC [6]: 1 to 3.5 µg/mL
- MIC [7]: 3.5 to 12.5 µg/mL
- MIC [8]: 1 to 3.5 µg/mL
- MIC [9]: 1 to 3.5 µg/mL
- MIC [10]: 12.5 to 150 µg/mL
- MIC [11]: 12.5 to 150 µg/mL
- MIC [12]: 3.5 to 12.5 µg/mL
- MIC [13]: 3.5 to 12.5 µg/mL
- MIC [14]: 1 to 3.5 µg/mL

SMILES: CCc1c(-c2ccc(N3CCC(C(C)(C)N)C3)cc2)[nH]c(=O)c(C(=O)O)c1O.Cl (stereo not drawn) [Cpd 279, 6-{4-[3-(2-aminopropan-2-yl)pyrrolidin-1-yl]phenyl}-5-ethyl-4-hydroxy-2-oxo-1,2-dihydropyridine-3-carboxylic acid hydrochloride]
- MIC [1, 15]: < 1 µg/mL
- MIC [2]: 1 to 3.5 µg/mL
- MIC [3]: 12.5 to 150 µg/mL
- MIC [4]: < 1 µg/mL
- MIC [5]: 3.5 to 12.5 µg/mL
- MIC [6]: 1 to 3.5 µg/mL
- MIC [7]: 12.5 to 150 µg/mL
- MIC [8]: 3.5 to 12.5 µg/mL
- MIC [9]: 3.5 to 12.5 µg/mL
- MIC [10]: 12.5 to 150 µg/mL
- MIC [11]: 12.5 to 150 µg/mL
- MIC [12]: 3.5 to 12.5 µg/mL
- MIC [13]: 3.5 to 12.5 µg/mL
- MIC [14]: 12.5 to 150 µg/mL

SMILES: CCc1c(-c2ccc(N3C[C@H]4CC[C@@H](N)[C@H]4C3)cc2)[nH]c(=O)c(C(=O)O)c1O.Cl [Cpd 264, 6-{4-[(3aR,4R,6aS)-4-aminohexahydrocyclopenta[c]pyrrol-2(1H)-yl]phenyl}-5-ethyl-4-hydroxy-2-oxo-1,2-dihydropyridine-3-carboxylic acid hydrochloride]
- MIC [1, 15]: < 1 µg/mL
- MIC [2]: 1 to 3.5 µg/mL
- MIC [3]: 3.5 to 12.5 µg/mL
- MIC [4]: 1 to 3.5 µg/mL
- MIC [5]: 12.5 to 150 µg/mL
- MIC [6]: 3.5 to 12.5 µg/mL
- MIC [7]: 12.5 to 150 µg/mL
- MIC [8]: 3.5 to 12.5 µg/mL
- MIC [9]: 12.5 to 150 µg/mL
- MIC [10]: 12.5 to 150 µg/mL
- MIC [11]: 12.5 to 150 µg/mL
- MIC [12]: 3.5 to 12.5 µg/mL
- MIC [13]: 1 to 3.5 µg/mL
- MIC [14]: < 1 µg/mL

SMILES: CCc1cc(C(=O)O)c(=O)[nH]c1-c1ccc(N(C)C)cc1 [Cpd 88, 6-[4-(dimethylamino)phenyl]-5-ethyl-2-oxo-1,2-dihydropyridine-3-carboxylic acid]
- MIC [1, 15]: < 1 µg/mL
- MIC [2]: < 1 µg/mL
- MIC [3]: 3.5 to 12.5 µg/mL (≈ 12.2 to 43.7 µM)
- MIC [4]: 12.5 to 150 µg/mL (≈ 43.7 to 524 µM)
- MIC [5]: 12.5 to 150 µg/mL (≈ 43.7 to 524 µM)
- MIC [6]: 12.5 to 150 µg/mL (≈ 43.7 to 524 µM)
- MIC [7]: < 1 µg/mL
- MIC [8]: < 1 µg/mL
- MIC [9]: 12.5 to 150 µg/mL (≈ 43.7 to 524 µM)
- MIC [10]: 12.5 to 150 µg/mL (≈ 43.7 to 524 µM)
- MIC [11]: 3.5 to 12.5 µg/mL (≈ 12.2 to 43.7 µM)
- MIC [12]: 3.5 to 12.5 µg/mL (≈ 12.2 to 43.7 µM)
- MIC [13]: < 1 µg/mL
- MIC [14]: < 1 µg/mL

SMILES: CCc1c(-c2ccc(N3CCC(CNC)C3)cc2)[nH]c(=O)c(C(=O)O)c1O.Cl (stereo not drawn) [Cpd 254, 5-ethyl-4-hydroxy-6-(4-{3-[(methylamino)methyl]pyrrolidin-1-yl}phenyl)-2-oxo-1,2-dihydropyridine-3-carboxylic acid hydrochloride]
- MIC [1, 15]: < 1 µg/mL
- MIC [2]: 1 to 3.5 µg/mL
- MIC [3]: 12.5 to 150 µg/mL
- MIC [4]: 3.5 to 12.5 µg/mL
- MIC [5]: 12.5 to 150 µg/mL
- MIC [6]: 3.5 to 12.5 µg/mL
- MIC [7]: 3.5 to 12.5 µg/mL
- MIC [8]: 3.5 to 12.5 µg/mL
- MIC [9]: 12.5 to 150 µg/mL
- MIC [10]: 12.5 to 150 µg/mL
- MIC [11]: 3.5 to 12.5 µg/mL
- MIC [12]: 12.5 to 150 µg/mL
- MIC [13]: 12.5 to 150 µg/mL
- MIC [14]: 1 to 3.5 µg/mL

SMILES: CCc1c(-c2ccc(N3C[C@H]4CCC[C@@H](NC)[C@H]4C3)cc2)[nH]c(=O)c(C(=O)O)c1O.Cl [Cpd 296, 5-ethyl-4-hydroxy-6-{4-[(3aR,4R,7aS)-4-(methylamino)octahydro-2H-isoindol-2-yl]phenyl}-2-oxo-1,2-dihydropyridine-3-carboxylic acid hydrochloride]
- MIC [1, 15]: < 1 µg/mL
- MIC [2]: 1 to 3.5 µg/mL
- MIC [3]: 1 to 3.5 µg/mL
- MIC [4]: < 1 µg/mL
- MIC [5]: 12.5 to 150 µg/mL
- MIC [6]: 3.5 to 12.5 µg/mL
- MIC [7]: 12.5 to 150 µg/mL
- MIC [8]: 1 to 3.5 µg/mL
- MIC [9]: 3.5 to 12.5 µg/mL
- MIC [10]: 12.5 to 150 µg/mL
- MIC [11]: 12.5 to 150 µg/mL
- MIC [12]: 3.5 to 12.5 µg/mL
- MIC [13]: 3.5 to 12.5 µg/mL
- MIC [14]: < 1 µg/mL

SMILES: CCc1c(-c2ccc(N3C[C@H]4CCC[C@H](N)[C@H]4C3)cc2)[nH]c(=O)c(C(=O)O)c1O.Cl [Cpd 258, 6-{4-[(3aR,4S,7aS)-4-aminooctahydro-2H-isoindol-2-yl]phenyl}-5-ethyl-4-hydroxy-2-oxo-1,2-dihydropyridine-3-carboxylic acid hydrochloride]
- MIC [1, 15]: < 1 µg/mL
- MIC [2]: 1 to 3.5 µg/mL
- MIC [3]: 3.5 to 12.5 µg/mL
- MIC [4]: < 1 µg/mL
- MIC [5]: 12.5 to 150 µg/mL
- MIC [6]: 3.5 to 12.5 µg/mL
- MIC [7]: 12.5 to 150 µg/mL
- MIC [8]: 1 to 3.5 µg/mL
- MIC [9]: 3.5 to 12.5 µg/mL
- MIC [10]: 12.5 to 150 µg/mL
- MIC [11]: 12.5 to 150 µg/mL
- MIC [12]: 3.5 to 12.5 µg/mL
- MIC [13]: 1 to 3.5 µg/mL
- MIC [14]: < 1 µg/mL

SMILES: CCc1c(-c2ccc(N3CCC(N(C)C)C3)cc2)[nH]c(=O)c(C(=O)O)c1O.Cl (stereo not drawn) [Cpd 275, 6-{4-[3-(dimethylamino)pyrrolidin-1-yl]phenyl}-5-ethyl-4-hydroxy-2-oxo-1,2-dihydropyridine-3-carboxylic acid hydrochloride]
- MIC [1, 15]: < 1 µg/mL
- MIC [2]: < 1 µg/mL
- MIC [3]: 12.5 to 150 µg/mL
- MIC [4]: 1 to 3.5 µg/mL
- MIC [5]: 3.5 to 12.5 µg/mL
- MIC [6]: 1 to 3.5 µg/mL
- MIC [7]: 1 to 3.5 µg/mL
- MIC [8]: 1 to 3.5 µg/mL
- MIC [9]: 1 to 3.5 µg/mL
- MIC [10]: 12.5 to 150 µg/mL
- MIC [11]: 3.5 to 12.5 µg/mL
- MIC [12]: < 1 µg/mL
- MIC [13]: < 1 µg/mL
- MIC [14]: < 1 µg/mL
